# Test results published in US5360613A, “Method of reducing blood levels of total cholesterol and low-density lipoprotein cholesterol” (Iowa State University Research Foundation, Inc., priority 1993, dated 1994).
# What was measured:
# blood cholesterol = test: Human dose-response study, blood cholesterol, triglycerides and glucose (Example V, Table E); format: in vivo, humans; settings: for % Change After 8 Days, Cholesterol: linear effect p .21; for % Change After 8 Days, LDL: linear effect p .26; for % Change After 8 Days, Triglycerides: linear effect p .50; for % Change After 8 Days, HDL: linear effect p .85; for % Change After 8 Days, Glucose: linear effect p .99
# Experimental: (§1) Higher dose levels than in Example IV of Ca-HMB were tested in humans. The objective was to obtain an indication of whether higher doses could be safely administered, and also whether higher doses might provide a greater reduction in total cholesterol and LDL cholesterol.
# (§2) Normal humans were used in the study. Ca-HMB was administered in 250 mg capsules, and the subjects were instructed to take the capsules in 4 equal doses daily. No control of diet was attempted except they were instructed to eat as they normally would. On alternate days the subjects had blood drawn before the morning meal and before they took the morning HMB dose. Four subjects were studied for dose level of 05., 1, 2 and 4 grams per day.
# (§3) Results from all samples of each subject were subjected to linear regression and the slope and intercept used to calculate the % change in concentration after 8 days on treatment. The percentage changes were then subjected to ANOVA-regression to determine if there was a linear effect of dosage on the parameter. The dose-response effect (p<) is listed in the linear effect column of Table E.
# [1] = Human dose-response study, body weight and body fat (Example V, Table E); format: in vivo, humans; settings: for % Change After 8 Days, Body fat (%): linear effect NS; for % Change After 8 Days, Weight: linear effect p .32
# Experimental: as §1, §2, §3
# [2] = Hygroscopicity of HMB salts; format: physicochemical; settings: compared with sodium or potassium salts
# aorta = test: Pig feeding study, aorta streaking (pre-atherosclerotic lesions) (Example III, Table C); format: in vivo, pigs; settings: dietary .05%; 0 least severe to 3.2 most severe; control 1.87; HMB p .06, KIC ns
# Experimental: (§4) A further large mammal study was carried out with pigs. Pigs comprise test animals which are more similar in certain respects to humans than ruminants.
# (§5) Control: 60 g. of calcium
# (§6) The pigs were housed in pens of two animals each and were allowed ad libitum access to food and water. Pigs were approximately 160 lbs. at the start of the experiment and were 240 lbs. at the end. All pigs were castrate males. At day 28 and day 43 of the experiment blood was collected from the anterior vena cava by venipuncture. Blood was collected into EDTA containing tubes, centrifuged and frozen until analyzed. At approximately 100 days of the experiment half of the animals (32) were slaughtered, and at 120 days the remaining 32 animals were slaughtered. At the time of slaughter the abdominal aorta was dissected out and external fat removed. The aorta was then split lengthwise and 1/2 fixed in formaldehyde for 48 hours. At this time aortas were removed, stretched over a 6 inch stick, washed in ethanol and stained with a lipid stain for 2 hours. After a 1 hour wash aortas were blotted and examined. All the aortas from a group were laid out on a white bench and arranged in order from least sever to most sever. The least sever had no dark red streaks on the aorta or around the small vertebral vessels leaving the aorta. The most sever lesions had multiple streaks in the middle of the aorta and dark red deposits in turbulent areas such as the branching of vessels from the aorta. The ordered aortas were then assigned a consecutive decimal number. The first (least severe) was assigned 0 and the most severe was assigned 3.2 Plasma cholesterol and triglycerides were measured by an enzyme-colorimetric assay (Sigma).
# (§7) statistical analysis was accomplished by the general linear model procedure of the Statistical Analysis System (SAS). The model included the main effects of treatment and pen number. T-tests were conducted from the ANOVA standard error, to compare the HMB treatments to the control. […] It appeared that HMB can partially prevent the formation of pre-atherosclerotic lesions. No effect of KIC was noted relative to any parameter.
# [3] = test system: plasma cholesterol and triglycerides; test: Pig feeding study, plasma cholesterol and triglycerides (Example III, Table C); format: in vivo, pigs
# Experimental: as §4, §5, §6, §7
smiles,measurement,setting,value
CC(C)(O)CC(=O)O [Ca-HMB],"% Change After 8 Days, Cholesterol",blood cholesterol; 0.5 g daily,6%
same,"% Change After 8 Days, LDL",blood cholesterol; 0.5 g daily,2%
same,"% Change After 8 Days, Triglycerides",blood cholesterol; 0.5 g daily,26%
same,"% Change After 8 Days, HDL",blood cholesterol; 0.5 g daily,0%
same,"% Change After 8 Days, Glucose",blood cholesterol; 0.5 g daily,-7%
same,"% Change After 8 Days, Cholesterol",blood cholesterol; 1.0 g daily,1%
same,"% Change After 8 Days, LDL",blood cholesterol; 1.0 g daily,0%
same,"% Change After 8 Days, Triglycerides",blood cholesterol; 1.0 g daily,-16%
same,"% Change After 8 Days, HDL",blood cholesterol; 1.0 g daily,6%
same,"% Change After 8 Days, Glucose",blood cholesterol; 1.0 g daily,2%
same,"% Change After 8 Days, Cholesterol",blood cholesterol; 2 g daily,-2%
same,"% Change After 8 Days, LDL",blood cholesterol; 2 g daily,-3%
same,"% Change After 8 Days, Triglycerides",blood cholesterol; 2 g daily,-8%
same,"% Change After 8 Days, HDL",blood cholesterol; 2 g daily,1%
same,"% Change After 8 Days, Glucose",blood cholesterol; 2 g daily,-5%
same,"% Change After 8 Days, Cholesterol",blood cholesterol; 4 g daily,-4%
same,"% Change After 8 Days, LDL",blood cholesterol; 4 g daily,-6%
same,"% Change After 8 Days, Triglycerides",blood cholesterol; 4 g daily,36%
same,"% Change After 8 Days, HDL",blood cholesterol; 4 g daily,0%
same,"% Change After 8 Days, Glucose",blood cholesterol; 4 g daily,-4%
same,"% Change After 8 Days, Body fat (%)",[1]; 0.5 g daily,5%
same,"% Change After 8 Days, Weight",[1]; 0.5 g daily,1.7%
same,"% Change After 8 Days, Body fat (%)",[1]; 1.0 g daily,-18%
same,"% Change After 8 Days, Weight",[1]; 1.0 g daily,-.3%
same,"% Change After 8 Days, Body fat (%)",[1]; 2 g daily,-15%
same,"% Change After 8 Days, Weight",[1]; 2 g daily,.5%
same,"% Change After 8 Days, Body fat (%)",[1]; 4 g daily,-1%
same,"% Change After 8 Days, Weight",[1]; 4 g daily,.2%
same,hygroscopicity,[2],less hydroscopic than the sodium or potassium salts
"CC(C)CC(=O)C(=O)O [KIC, ketoisocaproic acid, reference compound]",Aorta Streaking,aorta,1.48
same,effect relative to any parameter,"[3]; 0.05% KIC in diet, aorta streaking, plasma cholesterol, triglycerides",No effect
same,Plasma Triglycerides,"[3]; dietary .05%, control 107, ns",106 mg %
same,Plasma Cholesterol,"[3]; dietary .05%, control 135, HMB p .05, KIC ns",139 mg %
